The numbers were not newly measured in US8673586B2, “Compounds that interact with kinases” (Alchemia Limited, priority 2002, dated 2014), which cites them from elsewhere.

One series addresses MSK-1 (Homo sapiens, UniProt O75582). The conditions noted are these: cited from earlier work.
Another series concerns the target S6K1 (Homo sapiens, UniProt P23443). The conditions noted are these: cited from earlier work.
For the next series, the target named is PRK2 (Homo sapiens, UniProt Q16513). The conditions noted are these: inhibitor concentration 20 μM; cited from earlier work.
Chain of PRK2 (Q16513 whole entry, species assumed): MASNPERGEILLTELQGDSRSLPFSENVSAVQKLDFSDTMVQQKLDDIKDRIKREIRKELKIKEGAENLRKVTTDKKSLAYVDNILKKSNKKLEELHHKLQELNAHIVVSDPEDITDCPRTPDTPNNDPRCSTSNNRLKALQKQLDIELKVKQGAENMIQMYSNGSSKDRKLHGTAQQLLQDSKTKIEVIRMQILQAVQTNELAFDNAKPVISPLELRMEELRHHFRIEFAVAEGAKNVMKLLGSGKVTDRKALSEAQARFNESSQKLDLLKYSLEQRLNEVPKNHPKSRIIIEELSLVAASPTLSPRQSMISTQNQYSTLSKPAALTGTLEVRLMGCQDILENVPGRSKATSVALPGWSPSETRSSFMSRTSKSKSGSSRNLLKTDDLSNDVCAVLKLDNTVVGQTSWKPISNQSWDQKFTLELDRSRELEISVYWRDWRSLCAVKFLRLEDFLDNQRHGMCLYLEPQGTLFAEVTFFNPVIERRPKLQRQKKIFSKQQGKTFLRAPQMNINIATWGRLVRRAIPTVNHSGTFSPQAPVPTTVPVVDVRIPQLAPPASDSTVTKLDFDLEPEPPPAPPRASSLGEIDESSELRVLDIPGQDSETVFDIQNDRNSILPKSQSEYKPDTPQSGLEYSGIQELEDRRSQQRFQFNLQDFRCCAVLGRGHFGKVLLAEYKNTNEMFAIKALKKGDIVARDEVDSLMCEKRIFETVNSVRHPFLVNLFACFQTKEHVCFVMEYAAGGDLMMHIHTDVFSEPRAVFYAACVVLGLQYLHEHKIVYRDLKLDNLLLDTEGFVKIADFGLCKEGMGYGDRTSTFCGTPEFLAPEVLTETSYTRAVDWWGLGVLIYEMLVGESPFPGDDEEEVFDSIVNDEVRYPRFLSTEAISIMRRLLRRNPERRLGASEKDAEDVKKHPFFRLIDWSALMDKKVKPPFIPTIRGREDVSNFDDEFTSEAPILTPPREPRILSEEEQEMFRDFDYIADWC
The next series deals with CK1. The note with it: inhibitor concentration 10 μM; cited from earlier work.
In another series the target is MKK1 (Homo sapiens, UniProt Q02750). The conditions noted are these: inhibitor concentration 10 μM; cited from earlier work.
Chain of MKK1 (Q02750 whole entry, species assumed): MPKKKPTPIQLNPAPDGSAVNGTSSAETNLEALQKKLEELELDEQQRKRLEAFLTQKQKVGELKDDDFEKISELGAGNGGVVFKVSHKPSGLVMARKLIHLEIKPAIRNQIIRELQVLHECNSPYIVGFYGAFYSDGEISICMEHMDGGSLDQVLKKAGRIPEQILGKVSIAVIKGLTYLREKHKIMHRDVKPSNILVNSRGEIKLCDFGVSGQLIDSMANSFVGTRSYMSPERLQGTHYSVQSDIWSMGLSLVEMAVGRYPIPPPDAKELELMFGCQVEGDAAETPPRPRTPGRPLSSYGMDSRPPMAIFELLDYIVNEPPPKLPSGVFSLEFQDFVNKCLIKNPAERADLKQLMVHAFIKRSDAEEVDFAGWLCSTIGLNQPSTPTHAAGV
In another series the target is SAPK2a (Homo sapiens, UniProt Q16539). The note with it: inhibitor concentration 10 μM; cited from earlier work.
Chain of SAPK2a (Q16539 whole entry, species assumed): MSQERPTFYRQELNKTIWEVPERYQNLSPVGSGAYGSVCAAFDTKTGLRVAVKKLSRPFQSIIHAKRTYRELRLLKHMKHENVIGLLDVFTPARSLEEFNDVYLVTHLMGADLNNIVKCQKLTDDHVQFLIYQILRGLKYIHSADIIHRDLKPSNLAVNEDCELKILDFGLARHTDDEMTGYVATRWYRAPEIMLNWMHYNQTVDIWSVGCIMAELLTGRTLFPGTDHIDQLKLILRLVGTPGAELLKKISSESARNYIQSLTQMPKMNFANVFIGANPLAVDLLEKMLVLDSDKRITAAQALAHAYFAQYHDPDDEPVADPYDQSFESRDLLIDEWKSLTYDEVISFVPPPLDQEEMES
The target of another series is CDK2 (Homo sapiens, UniProt P24941). The conditions noted are these: inhibitor concentration 10 μM; cited from earlier work.
A further series deals with GSK3β (Homo sapiens, UniProt P49841). The note with it: inhibitor concentration 1 μM; cited from earlier work.
Chain of GSK3β (P49841 whole entry, species assumed): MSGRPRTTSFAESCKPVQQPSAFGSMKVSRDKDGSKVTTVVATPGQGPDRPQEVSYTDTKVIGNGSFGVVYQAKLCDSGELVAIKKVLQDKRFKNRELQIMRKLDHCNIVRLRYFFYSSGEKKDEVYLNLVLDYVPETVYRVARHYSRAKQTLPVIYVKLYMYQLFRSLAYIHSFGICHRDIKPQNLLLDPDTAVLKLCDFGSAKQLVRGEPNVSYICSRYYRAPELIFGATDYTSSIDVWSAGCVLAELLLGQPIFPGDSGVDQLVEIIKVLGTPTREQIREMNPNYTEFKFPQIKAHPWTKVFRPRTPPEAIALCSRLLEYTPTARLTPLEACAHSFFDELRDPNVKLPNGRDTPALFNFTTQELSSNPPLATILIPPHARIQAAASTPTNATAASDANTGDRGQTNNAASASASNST
The next series has as its target PKCα (Homo sapiens, UniProt P17252). The note with it: inhibitor concentration 1 μM; cited from earlier work.
For the next series, the target named is MAPKAPK1b (Homo sapiens, UniProt P51812). The conditions noted are these: inhibitor concentration 1 μM; cited from earlier work.
Chain of MAPKAPK1b (P51812 whole entry, species assumed): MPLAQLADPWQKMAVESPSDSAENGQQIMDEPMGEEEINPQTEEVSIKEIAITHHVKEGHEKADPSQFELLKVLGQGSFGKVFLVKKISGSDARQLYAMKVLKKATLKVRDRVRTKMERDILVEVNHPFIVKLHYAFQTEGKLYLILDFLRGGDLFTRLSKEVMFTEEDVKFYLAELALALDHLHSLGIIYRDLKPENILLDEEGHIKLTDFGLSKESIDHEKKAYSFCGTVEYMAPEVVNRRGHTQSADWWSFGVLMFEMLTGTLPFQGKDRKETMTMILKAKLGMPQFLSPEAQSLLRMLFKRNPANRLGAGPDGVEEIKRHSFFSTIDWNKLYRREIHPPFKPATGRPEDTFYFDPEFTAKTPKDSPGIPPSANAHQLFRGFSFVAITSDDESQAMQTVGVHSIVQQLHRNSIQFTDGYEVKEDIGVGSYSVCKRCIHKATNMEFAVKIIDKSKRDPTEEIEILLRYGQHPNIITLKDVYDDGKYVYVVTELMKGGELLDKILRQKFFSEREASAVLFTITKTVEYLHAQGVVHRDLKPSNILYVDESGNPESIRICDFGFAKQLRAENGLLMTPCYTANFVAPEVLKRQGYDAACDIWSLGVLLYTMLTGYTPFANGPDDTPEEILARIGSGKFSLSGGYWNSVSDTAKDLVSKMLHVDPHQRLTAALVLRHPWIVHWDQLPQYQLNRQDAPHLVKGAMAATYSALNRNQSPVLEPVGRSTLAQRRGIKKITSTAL

Where two headings read alike, the source gives them in different places.

Chain of S6K1 (P23443 whole entry, species assumed): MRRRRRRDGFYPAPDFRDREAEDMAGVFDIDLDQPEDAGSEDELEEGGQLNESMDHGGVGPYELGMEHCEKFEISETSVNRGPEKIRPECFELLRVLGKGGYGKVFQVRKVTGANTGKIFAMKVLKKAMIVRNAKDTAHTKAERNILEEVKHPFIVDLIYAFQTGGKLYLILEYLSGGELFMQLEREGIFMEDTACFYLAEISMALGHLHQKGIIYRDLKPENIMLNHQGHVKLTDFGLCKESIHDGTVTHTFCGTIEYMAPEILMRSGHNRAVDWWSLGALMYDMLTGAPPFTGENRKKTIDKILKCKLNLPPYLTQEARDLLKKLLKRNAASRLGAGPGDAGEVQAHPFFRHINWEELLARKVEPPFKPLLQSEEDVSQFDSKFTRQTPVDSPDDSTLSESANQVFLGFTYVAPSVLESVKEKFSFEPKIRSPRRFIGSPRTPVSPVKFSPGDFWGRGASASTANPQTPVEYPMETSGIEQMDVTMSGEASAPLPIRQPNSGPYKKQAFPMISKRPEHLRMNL
Chain of MSK-1 (O75582 whole entry, species assumed): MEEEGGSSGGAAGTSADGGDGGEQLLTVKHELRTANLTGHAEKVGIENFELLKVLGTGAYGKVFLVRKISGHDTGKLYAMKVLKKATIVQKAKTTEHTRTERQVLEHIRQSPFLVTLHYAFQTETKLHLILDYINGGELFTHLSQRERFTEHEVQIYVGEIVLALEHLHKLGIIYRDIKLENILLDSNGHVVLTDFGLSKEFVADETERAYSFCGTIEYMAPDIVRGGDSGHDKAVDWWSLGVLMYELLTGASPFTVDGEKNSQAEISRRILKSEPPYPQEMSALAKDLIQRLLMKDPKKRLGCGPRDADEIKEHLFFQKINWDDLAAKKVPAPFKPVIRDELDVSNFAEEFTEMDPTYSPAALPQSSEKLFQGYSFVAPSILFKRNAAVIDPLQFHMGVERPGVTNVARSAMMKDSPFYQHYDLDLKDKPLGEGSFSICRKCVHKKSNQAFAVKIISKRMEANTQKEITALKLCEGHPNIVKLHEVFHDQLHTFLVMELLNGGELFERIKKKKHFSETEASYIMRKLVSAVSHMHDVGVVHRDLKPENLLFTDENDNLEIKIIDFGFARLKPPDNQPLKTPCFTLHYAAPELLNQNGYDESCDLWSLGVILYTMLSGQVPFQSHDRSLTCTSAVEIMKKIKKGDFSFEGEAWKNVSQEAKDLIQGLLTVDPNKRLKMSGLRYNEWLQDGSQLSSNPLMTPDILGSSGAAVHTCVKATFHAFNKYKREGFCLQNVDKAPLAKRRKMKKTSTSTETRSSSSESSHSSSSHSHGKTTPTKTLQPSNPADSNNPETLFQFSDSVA

Regarding `O=S(=O)(c1cccc2cnccc12)N1CCCNCC1` [HA1077], the “residual activity MSK1” value on MSK-1 (inhibitor concentration 20 μM) is listed as 19%. The “residual activity S6K1” value on S6K1 (inhibitor concentration 20 μM) is given as 32%. For the same compound, on PRK2, the “residual activity PRK2” value is 15%.

Turning to `CC(C)(C)n1nc(-c2ccc(Cl)cc2)c2c(N)ncnc21` [PP2], in the series on CK1, the “residual activity CK1” value is listed as 6%. For the same compound, the “residual activity MKK1” value at MKK1 was 55%. Moreover, at SAPK2a, the “residual activity SAPK2a” value is listed as 21%. Also, at CDK2, the “residual activity CDK2” value was 3%.

Consider Ro-31-8220, for which the “residual activity MSK1” value at MSK-1 (inhibitor concentration 1 μM) is reported as 2%. Moreover, the “residual activity S6K1” value at S6K1 (inhibitor concentration 1 μM) is reported as 6%. Further, the “residual activity GSK3β” value at GSK3β is reported as 5%. For the same compound, the “residual activity PKCα” value on PKCα is 3%. For the same compound, the “residual activity MAPKAPK1b” value at MAPKAPK1b is recorded as 2%.
